From patent US6358995B1, “Carboxylic acid derivatives having fused rings” (Eisai Co., Ltd., priority 1996, dated 2002)

Tests used:
Test in all cases: Transcription accelerating activity through RARs (PLAP reporter in COS-1 cells)
Type in all cases: cell-based
Details in all cases: relative to ED30 of all-trans retinoic acid = 1, ED30 = concentration giving 30% of activity induced by 1 μM all-trans retinoic acid
RAR-γ = molecular target: T1, RAR-γ (Homo sapiens, UniProt P13631)
T1 construct: expressed in transfected cells; host or cells: COS-1 (African green monkey kidney cells), transient lipofection
T1 sequence (P13631 1-454): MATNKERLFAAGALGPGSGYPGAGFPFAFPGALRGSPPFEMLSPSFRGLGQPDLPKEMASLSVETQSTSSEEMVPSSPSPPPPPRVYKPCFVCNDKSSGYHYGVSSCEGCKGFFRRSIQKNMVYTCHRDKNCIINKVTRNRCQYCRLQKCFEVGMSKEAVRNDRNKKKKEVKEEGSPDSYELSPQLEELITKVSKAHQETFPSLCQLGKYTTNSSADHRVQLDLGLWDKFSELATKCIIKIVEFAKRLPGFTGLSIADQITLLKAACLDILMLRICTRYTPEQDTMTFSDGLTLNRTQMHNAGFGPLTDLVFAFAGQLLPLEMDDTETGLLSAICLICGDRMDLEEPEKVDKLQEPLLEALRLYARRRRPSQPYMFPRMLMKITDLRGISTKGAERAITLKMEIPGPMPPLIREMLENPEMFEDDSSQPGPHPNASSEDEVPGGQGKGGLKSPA
Text: (§1) Measurement of the Activities of Accelerating Trans-cription Through RARs
(§2) Human RAR Expression Vectors and secretory alkaline phosphatase (PLAP) gene vectors (PLAP vectors) containing in a state integrated into the upstream a competent sequence whose expression is […] through binding with RAR depending on a ligand were temporarily transferred into COS-1 (African green monkey kidney cells), and the PLAP which had been produced depending on a ligand and secreted into a culture medium was analyzed by the chemiluminescence method to determine the transcription-accelerating activity of each compound. Further, the selectivity of each compound among RARs was determined by comparing the transcription accelerating activities of the compound for the receptors with each other.
(§3) On a 60-mm culture dish were scattered 2.5×10^4 COS-1 cells. Four days after, human RAR α, β and γ expression vectors and PLAP vectors were transferred into the cells each in an amount of 4 μg by the lipofection method. Another day after, the resulting cells were recovered, and put on a 96-well culture plate in an amount of 2×10^4 per unit well. Four hours after, the cells were put on a medium containing charcoal-treated fetal bovine serum, followed by the addition of a dilution of all-trans retinoic acid or a test compound. After the lapse of 36 hours, the supernatant was recovered and the resulting samples were treated at 65° C. for 10 minutes to eliminate the non-specific activity. 15 μl of each sample was mixed with 60 μl of a 28 mM sodium carbonate buffer(pH10), followed by the addition of 75 μl of Smilight (trade name, a product of Sumitomo Metal Industries, Ltd., substrate for chemiluminescence). The resulting mixture was reacted at 37° C. for 30 minutes and the intensity of luminescence was determined. The compounds which will be described below induced the transcription activities of RARs dependently on the concentration.

RAR-α = molecular target: T2, RAR-α (Homo sapiens, UniProt P10276)
T2 construct: expressed in transfected cells; host or cells: COS-1 (African green monkey kidney cells), transient lipofection
T2 sequence (P10276 1-462): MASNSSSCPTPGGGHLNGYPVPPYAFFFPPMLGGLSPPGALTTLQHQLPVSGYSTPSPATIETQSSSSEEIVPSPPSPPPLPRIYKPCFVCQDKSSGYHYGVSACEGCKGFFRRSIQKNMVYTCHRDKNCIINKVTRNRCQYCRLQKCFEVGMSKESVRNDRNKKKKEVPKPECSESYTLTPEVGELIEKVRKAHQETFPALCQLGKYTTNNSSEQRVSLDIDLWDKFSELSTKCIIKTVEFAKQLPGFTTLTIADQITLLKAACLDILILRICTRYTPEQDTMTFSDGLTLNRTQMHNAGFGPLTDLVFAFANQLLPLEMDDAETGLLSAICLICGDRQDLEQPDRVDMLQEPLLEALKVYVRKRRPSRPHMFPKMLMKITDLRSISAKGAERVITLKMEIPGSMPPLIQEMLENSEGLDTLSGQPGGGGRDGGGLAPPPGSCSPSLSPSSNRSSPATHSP
Text: as §1, §2, §3

RAR-β = molecular target: T3, RAR-β (Homo sapiens, UniProt P10826)
T3 construct: expressed in transfected cells; host or cells: COS-1 (African green monkey kidney cells), transient lipofection
T3 sequence (P10826 1-455): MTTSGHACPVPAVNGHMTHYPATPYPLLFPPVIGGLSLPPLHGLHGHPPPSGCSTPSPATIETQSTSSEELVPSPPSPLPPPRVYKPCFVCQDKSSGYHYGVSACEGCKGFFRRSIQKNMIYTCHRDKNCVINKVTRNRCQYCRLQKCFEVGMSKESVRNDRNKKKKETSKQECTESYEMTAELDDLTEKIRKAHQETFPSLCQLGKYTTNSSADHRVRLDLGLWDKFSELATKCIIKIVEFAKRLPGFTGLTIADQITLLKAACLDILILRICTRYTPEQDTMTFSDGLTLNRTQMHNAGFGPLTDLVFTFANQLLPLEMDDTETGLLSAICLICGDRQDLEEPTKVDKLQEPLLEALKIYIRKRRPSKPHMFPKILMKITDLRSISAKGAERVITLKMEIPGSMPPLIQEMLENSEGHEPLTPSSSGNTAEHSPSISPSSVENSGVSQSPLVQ
Text: as §1, §2, §3

Compound	Transcription accelerating activity Relative ED30 RAR-γ (RAR-γ)	Transcription accelerating activity Relative ED30 RAR-α (RAR-α)	Transcription accelerating activity Relative ED30 RAR-β (RAR-β)
Cc1cccc2ccc(-c3ccc(-c4ccc(C(=O)O)cc4)[nH]3)cc12 [Example 6, 4-{2-[5-(8-Methylnaphthalen-2-yl)pyrrolyl]}benzoic acid]	240	0.9	110
CCc1cccc2ccc(-c3ccc(-c4ccc(C(=O)O)cc4)[nH]3)cc12 [Example 7, 4-{2-[5-(8-Ethylnaphthalen-2-yl)pyrrolyl]}benzoic acid]	190	0.9	36
Cc1ccc(C)c2oc(-c3ccc(-c4ccc(C(=O)O)cc4)[nH]3)cc12 [Example 13, 4-{2-[5-(4,7-Dimethylbenzofuran-2-yl)pyrrolyl]}benzoic acid]	48	0.4	13
O=C(O)c1ccc(-c2ccc(-c3cc4cccc(Cl)c4o3)[nH]2)cc1 [Example 15, 4-{2-[5-(7-Chlorobenzofuran-2-yl)pyrrolyl]}benzoic acid]	2100	3.1	940
CCCc1cccc2cc(-c3ccc(-c4ccc(C(=O)O)cc4)[nH]3)oc12 [Example 16, 4-{2-[5-(7-n-Propylbenzofuran-2-yl)pyrrolyl]}benzoic acid]	410	1.0	74
CCc1ccc(C)c2cc(-c3ccc(-c4ccc(C(=O)O)cc4)[nH]3)oc12 [Example 17, 4-{2-[5-(4-Methyl-7-ethylbenzofuran-2-yl)pyrrolyl]}benzoic acid]	120	0.26	24
CCc1cc(F)cc2cc(-c3ccc(-c4ccc(C(=O)O)cc4)[nH]3)oc12 [Example 25, 4-{2-[5-(5-Fluoro-7-ethylbenzofuran-2-yl)pyrrolyl]}benzoic acid]	63	0.65	62
O=C(O)c1ccc(-c2ccc(-c3cc4c(F)ccc(F)c4o3)[nH]2)cc1 [Example 27, 4-{2-[5-(4,7-Difluorobenzofuran-2-yl)pyrrolyl]}benzoic acid]	1000	0.63	170

Results, then the molecule that gave them:

Transcription accelerating activity Relative ED30 RAR-γ (RAR-γ)	Transcription accelerating activity Relative ED30 RAR-α (RAR-α)	Transcription accelerating activity Relative ED30 RAR-β (RAR-β)	Compound
— (—; >4000)	49	— (—; >4000)	COc1ccc2ccc(-c3ccc(-c4ccc(C(=O)O)cc4)[nH]3)cc2c1C [Example 4, 4-{2-[5-(7-Methoxy-8-methylnaphthalen-2-yl)pyrrolyl]}benzoic acid]
1400	1.0	160	O=C(O)c1ccc(-c2ccc(-c3cc4c(Cl)ccc(Cl)c4o3)[nH]2)cc1 [Example 14, 4-{2-[5-(4,7-Dichlorobenzofuran-2-yl)pyrrolyl]}benzoic acid]
300	0.66	59	CCc1ccc(Cl)c2cc(-c3ccc(-c4ccc(C(=O)O)cc4)[nH]3)oc12 [Example 20, 4-{2-[5-(4-Chloro-7-ethylbenzofuran-2-yl)pyrrolyl]}benzoic acid]
330	0.40	67	CCc1cc(Cl)cc2cc(-c3ccc(-c4ccc(C(=O)O)cc4)[nH]3)oc12 [Example 23, 4-{2-[5-(5-Chloro-7-ethylbenzofuran-2-yl)pyrrolyl]}benzoic acid]
